The values below come from US20150273010A1 (priority 2012, published 2015).

Format in all cases: cell-based
In series [1] the test system is self-inactivating pseudo-typed HIV-1 (sinHIV-GFP). Briefly: sinHIV-GFP infection screen of SupT1 cells expressing nuclear random peptide library (FACS). To be noted: clones isolated after 12 rounds of infection/selection; compared to the mCherry control. As for the experimental part:
A retroviral random peptide library localized to the nucleus, 3XF(GGS)3 NLS RPL, was used to search for novel inhibitors of HIV-1. In order to screen a population of SupT1 expressing this library, a self-inactivating pseudo-typed HIV-1 carrying a pCMV-GFP expression cassette was utilized. The 3XF(GGS)3 NLS RPL SupT1 cells and cells expressing pBMN.i.mCherry were then screened by infection with sinHIV-GFP. 72 hours post-infection, the cells were sorted by Fluorescence Activated Cell Sorting (FACS) based on the expression of GFP, retaining and expanding GFP-negative cells in culture. […] Following 12 rounds of infection, selection of non-fluorescent cells and amplification of the 3XF(GGS)3 NLS RPL expressing SupT1 cells, eight clones were isolated, and expanded in culture.

The target in series [2] is T1, HIV-1 PR (Human immunodeficiency virus type 1 group M subtype B, UniProt P04585). The conditions noted are these: 10 μM; Gal4/PR SupT1 clones, 1 μg/mL Dox.
Series [3] concerns SupT1 cells. Nature of the series: Toxicity of PI to cells during the Gal4/library/PR screen. To be noted: 100.M Indinavir, with PR as part of a fusion, time frame required for the screen. From the text: The screen starts with the addition of Dox. In alternative embodiments, cells can be non-fluorescent and not contain a Gal4/library fusion protein at all, or they can express a fusion protein cleaved by HIV-1 PR or cellular proteases. Cells expressing a non-cleaved fusion can be fluorescent (FIG. 10A panel a) as they will be able to activate the E2-Crimson reporter. This population is not of interest in this screen. In alternative embodiments, the non-fluorescent population is sorted and expanded (FIG. 10A panel b). In alternative embodiments, cells are then treated again with Dox, but this time in the presence of PI (100.M Indinavir). We have shown that Indinavir at this concentration, and PR as part of a fusion, are not toxic at least for the time frame required for the screen. Only the subpopulation of cells that express a substrate specific for PR should turn fluorescent and thus be E2-Crimson positive (FIG. 10A panel c). In alternative embodiments, this population is sorted and amplified (FIG. 10A panel d) and used to obtain individual clonal populations by growing individual cells in a 96-well format.

The target of series [4] is T1, HIV-1 PR. To be noted: HEK 293T co-transfected with p55 and PR, 48 hours post-transfection, PI present.
Method: Transfected cells were analyzed 48 hours post-transfection with anti-p24 antibody. […] Quantification of the Western blots by IMAGEJ™ (ImageJ™) software. Band intensities are plotted as a ratio of p24 to p55.
We performed a biochemical assay to assess PR activity based on its ability to cleave one of its natural substrates—the p55 Gag poly-protein. For this purpose, p96ZM651gag-opt (from the NIH AIDS reagent program) with humanized codons for optimal expression, was used as substrate. Cells were co-transfected with p55 and PR in the presence or absence of Ritonavir as PI. Cells were then analyzed by western blot 48 hours post-transfection with antibodies against HIV p24, capsid (NIH AIDS reagent program).
Series [5] has as its target T1, HIV-1 PR. To be noted: 293T cells, PR/RT cleavage site, added as PI.
The target of series [6] is T1, HIV-1 PR. An excerpt:
For that purpose, the well-characterized PR/RT and RT/IN HIV-1 boundaries were introduced between the Gal4 domains.

“Thr Arg Arg Val Ala His Asn Ser Glu (TRRVAHNSE) [Clone 2]”: in series [1], the “decrease in sinHIV-GFP infection rate” value is reported as “largest decrease”.
As to `CC(C)(C)NC(=O)[C@@H]1CN(Cc2cccnc2)CCN1C[C@@H](O)C[C@@H](Cc1ccccc1)C(=O)N[C@H]1c2ccccc2C[C@H]1O` [Indinavir], the “PR inhibition read as GFP induction” value in series [2] is recorded as “inhibited PR, allowing robust GFP induction”. Moreover, the toxicity entry in series [3] is reported as “not toxic”.
In the case of “Trp Arg Gly Ala Ala Met Val Arg Gly (WRGAAMVRG) [Clone 6]”, the “decrease in sinHIV-GFP infection rate” value in series [1] is “largest decrease”.
Take `CC(C)c1nc(CN(C)C(=O)N[C@H](C(=O)N[C@@H](Cc2ccccc2)C[C@H](O)[C@H](Cc2ccccc2)NC(=O)OCc2cncs2)C(C)C)cs1` [Ritonavir]: the “p55 Gag poly-protein processing by PR” value in series [4] is “poly-protein processing is hindered”.
Regarding `CC(C)CN(C[C@@H](O)[C@H](Cc1ccccc1)NC(=O)O[C@H]1CO[C@H]2OCC[C@H]21)S(=O)(=O)c1ccc(N)cc1` [Darunavir, darunavir], the “reversal of PR-dependent reduction in green fluorescence” value in series [5] is listed as “the trend was reversed”. Moreover, the “inhibition of PR-dependent decrease in E2-C fluorescence” value in series [6] is reported as “strongly inhibited”.
